This is an account of results in patent US8293280B2, “Method for treatment of HIV infection” (priority 2004, dated 2012).

The structures appear in SMILES notation.

The test deals with SIVmac239. In kind it is in vivo, rhesus macaques (Macaca mulatta).

Consider `C[C@H](Cn1cnc2c(N)ncnc21)OCP(=O)(O)O` [PMPA, 9-R-(2-phophorylmethoxypropyl) adenine], for which the “viral loads after termination of PMPA therapy” value (Group 2: no further treatment, Group 3: extract 3.3 NU/kg s.c. daily for 60 days, initiated 2 days prior to termination of PMPA) is “viral loads rebounded soon after the discontinuation of PMPA therapy”. This molecule showed a plasma viral loads (by day 28 of PMPA therapy, 30 mg/kg s.c. daily for 28 days, Groups 2 and 3) of 100 to 1000 viral copies per mL.
